Results taken from patent US20210128736A1, “STEREOCOMPLEX OF OLIGOLACTIC ACID CONJUGATES IN MICELLES FOR IMPROVED PHYSICAL STABILITY AND ENHANCED ANTITUMOR EFFICACY” (Wisconsin Alumni Research Foundation, priority 2018, published 2021).

Columns and labels:
[1] = system: human A549 non-small lung cancer cells; assay: In vitro cytotoxicity, CellTiter-Blue Cell Viability Assay, A549; type: cell-based; conditions: 72 hours incubation, micelles at 15% loading
Protocol: (§1) In vitro cytotoxicity studies. […] A549 cells were seeded into a 96-well plate at a seeding density of 1,500 cells/100 μL/well and cultured in RPMI 1640 medium, or PANC-1 cells were seeded into a 96-well plate at a seeding density of 5,000 cells/100 μL/well and cultured in Dulbecco Modified Eagle Medium (DMEM), at 37° C. in 5% CO2 incubator for 24 h. […] Cells cultured with diluted PBS in medium was used as controls. Drug treated cells were placed in an incubator at 5% CO2 at 37° C. for 72 h. The medium in each well was aspirated, and 100 μL of 20% (v/v) CellTiter-Blue reagent in serum free RPMI 1640 or DMEM was added, followed by incubation at 37° C. in 5% CO2 atmosphere for 1.5 h. Fluorescence intensity was measured by a SpectraMax M2 plate reader (Molecular Devices, San Jose, Calif.) with excitation and emission at 560 and 590 nm, respectively. The half maximal inhibitory drug concentration (IC50) was determined by using GraphPad Prism version 5.00 for Windows (GraphPad Software, La Jolla, Calif.).

[2] = system: PANC-1 pancreatic cancer cells; assay: In vitro cytotoxicity, CellTiter-Blue Cell Viability Assay, PANC-1; type: cell-based; conditions: Homo sapiens; PANC-1 cells, 72 hours incubation; micelles at 15% loading
Protocol: as §1

[3] = system: A549 non-small cell lung cancer xenograft; assay: In vivo antitumor efficacy in A549 xenograft model; parameters: species or system female athymic nude mice; conditions: 3-weekly I.V. injections at 10 mg/kg equivalent of GEM; micelles 5% loading; vs saline control
Protocol: In vivo antitumor efficacy studies. […] 6-8 week-old female athymic nude mice (20-25 g each) were acquired from laboratory animal resources at School of Medicine and Public Health, University of Wisconsin-Madison. Mice were housed in ventilated cages with free access to water and food and acclimated for 1 week prior tumor cell injection. A549 cells (2×10^6 cells in 100 μL of serum-free RPMI 1640 medium) were harvested from sub-confluent cultures after trypsinization and were injected subcutaneously into the right flank of each mouse. […] Drugs were administered via tail vein for 3 weekly injections. Body weight and tumor volume were monitored over the course of study. Tumor volume was calculated using the formula: V=(a×b^2)/2, where V is tumor volume, a is tumor length, b is tumor width.

[4] = mice, reported; cited from earlier work
subcutaneous tumors = conditions: cited from earlier work
[5] = Stability in rat plasma at 37° C. (RP-HPLC); conditions: 24 hours

Nc1ccn([C@@H]2O[C@H](CO)[C@@H](O)C2(F)F)c(=O)n1 [GEM, Gemcitabine]
IC50 [1]: ~1.1 µM
IC50 [2]: ~9.2 µM
antitumor efficacy (tumor growth, relative tumor volume) [3]: not effective
maximum tolerated doses (MTD) [4]: 100 mg/kg
dose required to inhibit tumor growth (subcutaneous tumors; mice bearing subcutaneous tumors): 100 mg/kg
efficacy against subcutaneous tumors (subcutaneous tumors; mice, GEM at 10 mg/kg): generally ineffective
intact GEM detected after incubation in plasma [5]: less than 50%
